Laboratory results: PMC8509428, “The Phenoxyalkyltriazine Antagonists for 5-HT6 Receptor with Promising Procognitive and Pharmacokinetic Properties In Vivo in Search for a Novel Therapeutic Approach to Dementia Diseases” (International Journal of Molecular Sciences, 2021)
Where “and” joins values, the source holds several entries; their conditions need not be identical. Equal values may be shown once. Read-outs that look alike come from different tables or passages of the source.

Tests used:
[1] = Pharmacokinetics and tissue distribution in rats; assay type: in vivo, rat; conditions: for MRT / CL/F / Vz/F: rat serum; for MRT / half-life / Tmax / CL/F / Cmax / AUC(0-t) / AUC(0-inf) / Vz/F / AUC0-t, brain / AUC0-t, liver / AUC0-t, lungs / Cmax, heart / Cmax, kidneys / Cmax, liver / Cmax, lungs / AUC0-t, heart / AUC0-t, kidneys / Cmax, brain / t1/2λz, serum: 0.3 mg/kg i.p.; for Kp: intraperitoneal; for Cmax / AUC(0-t) / AUC(0-inf): mean ± SD; for AUC(0-t): read-out: AUC0-t, serum (converted); for AUC(0-inf): read-out: AUC0-∞, serum (converted)
Protocol: To assess pharmacokinetic profile and tissue penetration of 2 and 3, the male Wistar rats were a single intraperitoneal (i.p.) injected with these compounds dissolved in tween (vehicle volume 1 mL/kg) at a dose of 0.3 mg/kg, determined in behavioral studies. The animals were killed by decapitation under deep anesthesia (i.p. injection of 50 mg/kg ketamine and 7.5 mg/kg xylazine) at 5, 15, 30, 60, 120 and 240 min after compounds administration (four animals per time point) and blood samples (approximately 5–6 mL) were collected into tubes. Moreover, five tissues (i.e., brain, heart, lungs, kidneys and liver) were harvested, rinsed with cold saline, and the wet weights determined. Blood was allowed to clot for 15–20 min at room temperature and then centrifuged (3000 rpm for 10 min). The obtained serum and tissues were stored frozen at −80 °C until analysis.
The concentrations of both test compounds in serum and tissue homogenates were measured by a reverse-phase high-performance liquid chromatography method with ultraviolet detection (HPLC/UV). […] The mobile phase consisted of methanol/10 mM potassium dihydrogen phosphate buffer, pH 4.6/acetonitrile (51/40/9, v/v/v). The isocratic separation was performed at 1.0 mL/min constant flow-rate with column temperature maintained at 38 °C. The detection wavelength was set at 206 nm for 2 and at 215 nm for 3. […] EZChrome Elite v. 3.3.2 software (VWR, Darmstadt, Germany) was used for data acquisition.
Before analysis, tissue samples were thawed, placed in four volumes (w/v) of phosphate-buffered saline (PBS, pH 7.4) and homogenized using a MICCRA D-1 homogenizer (ART Prozess- & Labortechnik GmbH & Co., Heitersheim, Germany). To isolate 2 or 3, 500 µL of rat serum or tissue homogenate containing this compound were mixed with a 20-μL volume of IS solution (50 ng/mL or 200 ng/g in methanol). As an IS for compound 2 quantification, compound 3 was used and vice versa.
The samples were alkalized with 50 μL of 4 M sodium hydroxide solution, vortex-mixed, and extracted with 1 mL of ethyl acetate/hexane (30/70, v/v) mixture on a shaker (VXR Vibrax, IKA, Legnica, Poland) for 20 min. After centrifugation (Eppendorf, Mini Spin Plus, Hamburg, Germany), the organic layers were transferred into new tubes containing 100 μL of methanol and 0.1 M sulfuric acid (10/90, v/v) mixture. Then, the samples were shaken and centrifuged again. Finally, 20–90 μL of each acidic layer was injected into the HPLC system.
Other pharmacokinetic parameters were determined on subjecting the concentration–time data to non-compartmental analysis using Phoenix WinNonlin 8.2 software (Pharsight Corporation, a Certara Company, Princeton, NJ, USA).

rats = assay: Elevated plus-maze (EPM) test; assay type: in vivo, rat; conditions: for Open Arms % of entries / Open Arms % of time / Open Arms Distance / Open Arms Entries / Open Arms Time: mean ± SEM
Source text: The testing procedure was based on a method described by. Plus-maze apparatus (an automated device produced by Campden Instruments Ltd. (Leicestershire, UK) made of durable, high density, non-porous black plastic, elevated to a height of 50 cm, consisted of two open arms (50 × 10 cm) and two closed arms (50 × 10 cm, and 30 cm high walls), arranged so that the two arms of each type were opposite each other. The floor of the plus-maze was made of infrared transparent material what means that there are no visible sensors. Plus-maze apparatus was connected to PC software by control chassis. The experiments were conducted in a darkened room, only the center of the maze was illuminated with low-intensity light (30 lux measured on the maze level). Each rat was gently placed in the center of the plus-maze, facing one of the closed arms, immediately after a 5-min adaptation period in a plastic black box (60 × 60 × 35 cm), to increase the overall activity in the EPM. During a 5-min test period, automated Motor Monitor System recorded the number of entries into the closed and open arms and the time spent in either type of arms. The device counted an effective arm-entry when the four paws of a rat were into any arm. The maze was thoroughly cleaned after each trial. The EPM test is an “unconditional” anxiety-like test based on rodents’ natural aversion to heights and open space.

[2] = male, Wistar, rat, brain (vs serum), 0.3 mg/kg, AUC0-t tissue / AUC0-t serum, read-out: Kp, brain
[3] = male, Wistar, rat, brain, ip, 0.3 mg/kg, rat, read-out: elimination half-life, brain tissue
[4] = male, Wistar, rat, heart / serum, 0.3 mg/kg, AUC0-t tissue / AUC0-t serum, read-out: Kp, heart
[5] = male, Wistar, rat, heart, ip, 0.3 mg/kg, rat, read-out: Tmax, heart (converted)
[6] = male, Wistar, rat, kidneys (vs serum), 0.3 mg/kg, AUC0-t tissue / AUC0-t serum, read-out: Kp, kidneys
[7] = male, Wistar, rat, kidneys, ip, 0.3 mg/kg, rat, read-out: Tmax, kidneys (converted)
[8] = male, Wistar, rat, liver (vs serum), 0.3 mg/kg, AUC0-t tissue / AUC0-t serum, read-out: Kp, liver
[9] = male, Wistar, rat, liver, ip, 0.3 mg/kg, rat, read-out: Tmax, liver (converted)
[10] = male, Wistar, rat, lungs / serum, 0.3 mg/kg, AUC0-t tissue / AUC0-t serum, read-out: Kp, lungs
[11] = male, Wistar, rat, lungs, ip, 0.3 mg/kg, rat, read-out: Tmax, lungs (converted)
[12] = male, Wistar, rat, serum, ip, 0.3 mg/kg, read-out: CL/F (converted)
[13] = male, Wistar, rat, serum, ip, 0.3 mg/kg, rat, read-out: Tmax, serum (converted)
[14] = male, Wistar, rat, serum, ip, 0.3 mg/kg, rat, read-out: t1/2λz, serum

CCC(Oc1cccc(Cl)c1Cl)c1nc(N)nc(N2CCN(C)CC2)n1 (racemic) [Compound 2, (RS)-4-[1-(2,3-dichlorophenoxy)propyl]-6-(4-methylpiperazin-1-yl)-1,3,5-triazin-2-amine]
Kp, brain ([1]; AUC0-t tissue / AUC0-t serum): 2.69
Kp, kidneys ([1]; AUC0-t tissue / AUC0-t serum): 16.52
MRT ([1]; male, Wistar, ip): 90.1 min
Kp [1, 2]: 2.03
half-life [1, 3]: 149 min
Kp [1, 4]: 2.3
Tmax [1, 5]: 5 min
Kp [1, 6]: 16.5
Tmax [1, 7]: 15 min
Kp [1, 8]: 14.4
Tmax [1, 9]: 15 min
Kp [1, 10]: 8.54
Tmax [1, 11]: 5 min
CL/F [1, 12]: 515 mL/min/kg
Tmax [1, 13]: 15 min
half-life [1, 14]: 116 min
Cmax ([1]; male, Wistar, serum, ip, rat): 5.2 ± 2.24 ng/mL
AUC(0-t) ([1]; male, Wistar, serum, ip, rat): 7.56 ng·h/mL
AUC(0-inf) ([1]; male, Wistar, serum, ip, rat): 8.85 ng·h/mL
CL/F ([1]; 0.3 mg/kg): 514.5 ± 165 mL/min/kg
Vz/F ([1]; 0.3 mg/kg): 81 L/kg and 80.99 ^a ± 18.22 L/kg
AUC0-t, brain ([1]; rat): 1219.94 ± 368.79 ng·min/mL or ng·min/g
AUC0-t, liver ([1]; rat): 6523.60 ± 4997.28 ng·min/mL or ng·min/g
AUC0-t, lungs ([1]; rat): 3870.66 ± 680.07 ng·min/mL or ng·min/g
Cmax, heart ([1]; rat): 8.90 ± 8.15 ng/mL or ng/g
Cmax, kidneys ([1]; rat): 65.73 ± 34.94 ng/mL or ng/g
Cmax, liver ([1]; rat): 115.22 ± 93.46 ng/mL or ng/g
Cmax, lungs ([1]; rat): 54.20 ± 21.61 ng/mL or ng/g
AUC0-t, heart ([1]; rat, 0.3 mg/kg): 1040.7 ng·min/mL or ng·min/g and 1040.74 ± 448.65 ng·min/mL or ng·min/g
AUC0-t, kidneys ([1]; rat, 0.3 mg/kg): 7488.1 ng·min/mL or ng·min/g and 7488.06 ± 4372.92 ng·min/mL or ng·min/g
Cmax, brain ([1]; rat, 0.3 mg/kg): 11.63 ± 3.13 ng/mL or ng/g
t1/2λz, serum ([1]; rat, 0.3 mg/kg): 116 min and 116.18 ^a ± 17.14 min
Open Arms % of entries (rats; 0.3 mg/kg i.p.): 23.97 ± 4.97%
Open Arms % of time (rats; 0.3 mg/kg i.p.): 14.85 ± 3.30%
Open Arms Distance (rats; 0.3 mg/kg i.p.): 423 ± 87 cm
Open Arms Entries (rats; 0.3 mg/kg i.p.): 6.50 ± 1.60
Open Arms Time (rats; 0.3 mg/kg i.p.): 36.85 ± 8.90 s
Open Arms % of entries (rats; 1 mg/kg i.p.): 26.53 ± 3.69%
Open Arms % of time (rats; 1 mg/kg i.p.): 10.10 ± 1.20%
Open Arms Distance (rats; 1 mg/kg i.p.): 279 ± 45 cm
Open Arms Entries (rats; 1 mg/kg i.p.): 5.86 ± 0.90
Open Arms Time (rats; 1 mg/kg i.p.): 24.75 ± 3.19 s
increase of distance travelled in the open arms vs vehicle (rats; 3 mg/kg i.p.): 134%
increase of number of open-arm entries vs vehicle (rats; 3 mg/kg i.p.): 160%
increase of percentage of time spent in open arms vs vehicle (rats; 3 mg/kg i.p.): 137%
increase of time spent in the open arms vs vehicle (rats; 3 mg/kg i.p.): 120%
Open Arms % of entries (rats; 3 mg/kg i.p.): 41.89 ± 3.37%
Open Arms % of time (rats; 3 mg/kg i.p.): 30.00 ± 3.60%
Open Arms Distance (rats; 3 mg/kg i.p.): 914 ± 126 cm
Open Arms Entries (rats; 3 mg/kg i.p.): 13.00 ± 2.30
Open Arms Time (rats; 3 mg/kg i.p.): 72.23 ± 7.30 s
increase of percentage of entries into open arms vs vehicle (rats; 3 mg/kg i.p., not significant): 68%
dose with anxiolytic-like activity in EPM test (rats; i.p.): 3 mg/kg

CCC(Oc1ccccc1)c1nc(N)nc(N2CCN(C)CC2)n1 (racemic) [Compound 3, (RS)-4-(4-methylpiperazin-1-yl)-6-(1-phenoxypropyl)-1,3,5-triazin-2-amine]
Kp, brain ([1]; AUC0-t tissue / AUC0-t serum): 2.03
Kp, liver ([1]; AUC0-t tissue / AUC0-t serum): 10.54
MRT ([1]; male, Wistar, ip): 79.3 min
Kp [1, 2]: 2.63
Tmax ([1]; male, Wistar, rat, brain, ip, 0.3 mg/kg, rat, read-out: Tmax, brain (converted)): 5 min
half-life [1, 3]: 112 min
Kp [1, 4]: 2.49
Tmax [1, 5]: 5 min
Kp [1, 6]: 6.03
Tmax [1, 7]: 15 min
Kp [1, 8]: 10.5
Tmax [1, 9]: 5 min
Kp [1, 10]: 6.41
Tmax [1, 11]: 5 min
CL/F [1, 12]: 587 mL/min/kg
Tmax [1, 13]: 5 min
half-life [1, 14]: 76.7 min
Cmax ([1]; male, Wistar, serum, ip, rat): 6.32 ± 5.03 ng/mL
AUC(0-t) ([1]; male, Wistar, serum, ip, rat): 7.07 ng·h/mL
AUC(0-inf) ([1]; male, Wistar, serum, ip, rat): 8.53 ng·h/mL
CL/F ([1]; 0.3 mg/kg): 586 ± 298.7 mL/min/kg
Vz/F ([1]; 0.3 mg/kg): 65 L/kg and 64.81 ± 21.78 L/kg
AUC0-t, heart ([1]; rat): 1057.37 ± 285.41 ng·min/mL or ng·min/g
AUC0-t, kidneys ([1]; rat): 2557.08 ± 1084.42 ng·min/mL or ng·min/g
AUC0-t, lungs ([1]; rat): 2715.09 ± 1000.42 ng·min/mL or ng·min/g
Cmax, heart ([1]; rat): 21.83 ± 17.16 ng/mL or ng/g
Cmax, kidneys ([1]; rat): 41.25 ± 8.41 ng/mL or ng/g
Cmax, liver ([1]; rat): 129.62 ± 106.23 ng/mL or ng/g
Cmax, lungs ([1]; rat): 73.65 ± 63.94 ng/mL or ng/g
AUC0-t, brain ([1]; rat, 0.3 mg/kg): 859.1 ng·min/mL or ng·min/g and 859.08 ± 312.87 ng·min/mL or ng·min/g
AUC0-t, liver ([1]; rat, 0.3 mg/kg): 4467.2 ng·min/mL or ng·min/g and 4467.18 ± 2249.99 ng·min/mL or ng·min/g
Cmax, brain ([1]; rat, 0.3 mg/kg): 11.35 ± 6.93 ng/mL or ng/g
t1/2λz, serum ([1]; rat, 0.3 mg/kg): 77 min and 76.65 ± 18.07 min
Open Arms % of entries (rats; 0.3 mg/kg i.p.): 28.54 ± 6.70%
Open Arms % of time (rats; 0.3 mg/kg i.p.): 9.84 ± 1.50%
Open Arms Distance (rats; 0.3 mg/kg i.p.): 340 ± 59 cm
Open Arms Entries (rats; 0.3 mg/kg i.p.): 5.28 ± 0.42
Open Arms Time (rats; 0.3 mg/kg i.p.): 24.27 ± 3.41 s
Open Arms % of entries (rats; 1 mg/kg i.p.): 33.64 ± 2.70%
Open Arms % of time (rats; 1 mg/kg i.p.): 18.30 ± 4.10%
Open Arms Distance (rats; 1 mg/kg i.p.): 646 ± 145 cm
Open Arms Entries (rats; 1 mg/kg i.p.): 8.43 ± 1.36
Open Arms Time (rats; 1 mg/kg i.p.): 44.24 ± 9.71 s
Open Arms % of entries (rats; 3 mg/kg i.p.): 24.39 ± 7.60%
Open Arms % of time (rats; 3 mg/kg i.p.): 7.03 ± 2.00%
Open Arms Distance (rats; 3 mg/kg i.p.): 231 ± 87 cm
Open Arms Entries (rats; 3 mg/kg i.p.): 4.17 ± 1.10
Open Arms Time (rats; 3 mg/kg i.p.): 19.00 ± 5.50 s
anxiolytic-like activity in EPM test (rats; i.p., 60 min before test): did not show anxiolytic-like activity
